The IC50 is the midpoint of a concentration-inhibition curve.

Molecules are shown by their SMILES.

The results in this text go back to BindingDB's records for patent US20240376119 (Cspc Zhongqi Pharmaceutical Technology (Shijiazhuang), 2024).

The target of this assay is T1, Tyrosine-protein phosphatase non-receptor type 11 (Homo sapiens, UniProt Q06124).
T1 sequence (Q06124 whole entry): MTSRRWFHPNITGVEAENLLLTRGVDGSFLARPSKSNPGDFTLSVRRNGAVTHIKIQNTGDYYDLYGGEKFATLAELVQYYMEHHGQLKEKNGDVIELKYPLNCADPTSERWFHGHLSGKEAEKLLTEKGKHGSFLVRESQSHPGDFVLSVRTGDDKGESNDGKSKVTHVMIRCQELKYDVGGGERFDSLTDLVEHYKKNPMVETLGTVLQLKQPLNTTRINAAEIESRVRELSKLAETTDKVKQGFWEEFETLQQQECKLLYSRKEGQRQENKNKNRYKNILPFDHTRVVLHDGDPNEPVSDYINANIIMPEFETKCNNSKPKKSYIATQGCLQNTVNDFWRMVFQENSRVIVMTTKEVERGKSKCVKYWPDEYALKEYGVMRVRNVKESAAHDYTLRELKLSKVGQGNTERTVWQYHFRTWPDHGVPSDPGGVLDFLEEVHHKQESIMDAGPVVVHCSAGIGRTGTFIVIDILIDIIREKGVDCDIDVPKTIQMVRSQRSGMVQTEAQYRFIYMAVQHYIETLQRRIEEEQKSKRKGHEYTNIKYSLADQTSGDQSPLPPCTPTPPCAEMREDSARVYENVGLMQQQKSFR
As to the kind of experiment: Assay for the inhibitory effect on the SHP2 enzyme. The method, then: A mixed liquor of 2× working SHP2 reagent (0.4 nM) and 0.5 μM SHP-2 activated peptide (BPS bioscience #79319-2) was prepared with 1× enzyme buffer. After the above-mixed liquor was incubated at 25° C. for 60 minutes, 5 μL of activated SHP2 kinase solution was transferred with a pipettor to the compound wells and the Max control wells (Corning, #4514) of the plate. Then 5 μL of 1× kinase buffer was transferred to the Min control wells. The plate was centrifuged at 1000 rpm for 30 seconds, sealed, and incubated in a 25° C. constant-temperature incubator for 30 minutes. A substrate solution of DiFMUP (#D6567, Invitrogen™) was prepared with 1× kinase buffer, and its concentration should be 2 times as the final concentration of the assay (DiFMUP final concentration: 10 μM). 5 μL of the prepared substrate solution was transferred with an electric pipettor into each well of the ELISA plate to start the reaction. The plate was centrifuged at 1000 rpm for 30 seconds, sealed, and incubated in a 25° C. constant-temperature incubator for 60 minutes. Read the plate at the excitation/emission wavelength of 358/455 nm after the ELISA plate was placed on the Spark machine.

For the compound `COC(=O)c1nc(Sc2cccc(-c3ccn(C)n3)c2Cl)cnc1N1CCC2(CC1)Cc1ccccc1[C@H]2N` [US20240376119, Example 19], the IC50 entry is “in the range around 20 nM”.
